Results as given in US20150166524A1, “CRYSTALLINE FORM OF MASITINIB” (SANDOZ AG, priority 2013, published 2015).

Assays:
[1] = cited from earlier work; for polymorphic conversion: DRX2: upon temperature increase, DRX3: outside dry conditions
[2] = cited from earlier work
[3] = Behaviour on heating by TG/DTA; assay type: physicochemical; conditions: lost small amounts of water
Method: Thermogravimetric analyses were carried out on a Mettler Toledo TGA/DSC1 STARe. The calibration standards were indium and tin. Samples were placed in an aluminium sample pan, inserted into the TG furnace and accurately weighed. The heat flow signal was stabilised for one minute at 30° C., prior to heating to 270° C. in a stream of nitrogen at a rate of 10° C./minute.
Masitinib mesylate (25 mg) was charged into a scintillation vial followed by methanol (containing small amounts of water; 1.0 mL). The suspension was then heated until the masitinib mesylate had dissolved. The masitinib mesylate solution in methanol was then allowed to slowly cool to room temperature. The crystals which formed were then harvested by filtration and analyzed by XRPD and TG/DTA.

[4] = Dynamic Vapour Sorption (DVS) hygroscopicity; assay type: physicochemical
Method: Dynamic Vapour Sorption (DVS) was performed using a Hiden Analytical Instruments IGAsorp Vapour Sorption Balance. Approximately 30 mg of sample was placed into a wire-mesh vapour sorption balance pan, loaded into the IGAsorp vapour sorption balance and held at 25° C.±0.1° C. The sample was subjected to a step profile from 40% RH to 90% RH at 10% increments, followed by desorption from 90% RH to 0% RH at 10% increments and a second adsoriotn cycle from 0% RH to 90% RH. The equilibrium criterion was set to 99.0% step completion within a minimum of 60 minutes and a maximum of 5 hours for each increment. The weight change during the sorption cycle was monitored, allowing for the hygroscopic nature of the sample to be determined. The data collection interval was in seconds.
The hygrosopicity of masitinib mesylate form H as obtained from example 2 was assessed by DVS. The DVS isotherm was initiated at 40% r.h. and increased to 70% r.h. The weight gain in this relative humidity interval was below 0.27% (w/w).

[5] = as described in response to the eESR

For masitinib mesylate [DRX2], the polymorphic conversion [1] is listed as “slowly, but fully, converts to DRX1” and the polymorphic stability [1, 5] is listed as “stable only at 25 °C”.
For Masitinib mesylate [crystal form I], the “behaviour at 80% relative humidity” value ([2]; 80% relative humidity) is listed as “remains dry”, the thermodynamic stability ([2]; at temperatures below 200° C.) is listed as “thermodynamically stable” and the hygroscopicity [1, 5] is listed as “mildly hygroscopic”.
In the case of “masitinib mesylate [Comparative Example]”, the “polymorphic conversion upon heating” value [3] is reported as “converted to masitinib mesylate crystal form I upon heating”.
With Masitinib mesylate [form H] the “hygroscopicity compared with form I” value ([4]; DVS) was “less hygroscopic than masitinib mesylate form I”, the “weight gain in relative humidity interval (DVS)” value ([4]; DVS isotherm from 40% r.h. to 70% r.h., form H from example 2) was “below 0.27 % (w/w)” and the “water absorbed (DVS)” value ([4]; interval of relative humidity between 40% and 70% r.h.) was “less than 0.5 weight %”.
For masitinib mesylate [DRX3], the polymorphic conversion [1] is given as “quickly converts to DRX2” and the polymorphic stability [1, 5] is given as “stable under dry conditions only”.
